In patent publication US20160095867A1, “BET INHIBITION THERAPY FOR HEART DISEASE” (DANA-FARBER CANCER INSTITUTE, INC., priority 2013, published 2016):

Test system: NRVM
Assay: PE-mediated cardiomyocyte hypertrophy in NRVM (cell area measurement)
Format: cell-based, rat
Settings: equimolar doses (500 nM), PE 100 μM, 48 hours
Method: NRVM were isolated from the hearts of 2 day old Sprague-Dawley rat pups (Charles River) and maintained under standard conditions as described (Haldar et al., 2010). The cells were differentially plated for 1.5 h in cell culture dishes to remove contaminating non-myocytes. Unless otherwise stated, NRVM were plated at a density of 10^5 cells/mL. Cells were initially plated in growth medium (DMEM supplemented with 5% FBS, 100 U/mL penicillin-streptomycin, and 2 mM L-glutamine) for 24-36 hours and maintained in serum-free media thereafter (DMEM supplemented with 0.1% BSA, 1% insulin-transferrin-selenium liquid media supplement (Sigma 13146), 100 U/mL penicillin-streptomycin, and 2 mM L-glutamine). Media was changed every 2-3 days. Prior to stimulation with agonists, NRVM were maintained in serum-free medium for 48-72 hours. For hypertrophic stimulation, NRVM were incubated with JQ1 versus DMSO at indicated concentrations for 6 h followed by stimulation with PE (100 μM) for indicated timepoints.
NRVM were plated on glass coverslips in 6-well dishes at a density of 10^5 cells/mL. After treatments, cells were briefly fixed in PBS containing 2% PFA, permeabilized with PBST/0.1% Triton X-100, and blocked in PBST/5% horse serum. Primary antibody was anti-sarcomeric α-actinin (Sigma A7811) at 1:800. Fluorophore-tagged anti-mouse secondary antibody (α-mouse Alexa 488 green) was used at 1:1000 dilution. Coverslips were mounted on glass slides with mounting media containing DAPI. Quantitation of cardiomyocyte cell surface area was performed on α-actinin-stained cardiomyocytes using fluorescent microscopy and NIH Image J software as previously described (Liang et al., 2001). Analysis consisted of at least 100 cardiomyocytes in 20-30 fields at 400× magnification. This process was replicated in a least three independent experiments, and the data were combined.

SMILES | inhibition of agonist-induced cardiomyocyte hypertrophy (cell area)
COc1cc(OC)c2c(=O)[nH]c(-c3cc(C)c(OCCO)c(C)c3)nc2c1 [RVX-208] | inhibition of agonist-induced cardiomyocyte hypertrophy was indeed a class effect
COc1cc2c(cc1-c1c(C)noc1C)ncc1[nH]c(=O)n([C@H](C)c3ccccn3)c12 [iBET-151] | inhibition of agonist-induced cardiomyocyte hypertrophy was indeed a class effect
CCNC(=O)C[C@@H]1N=C(c2ccc(Cl)cc2)c2cc(OC)ccc2-n2c(C)nnc21 [iBET] | inhibition of agonist-induced cardiomyocyte hypertrophy was indeed a class effect
